The results in this text go back to ChEMBL document CHEMBL1201862, “PubChem BioAssay data set” (2004).

For orientation: GI50 means the concentration that inhibits growth by half.

Among the test systems are Hs-578T; 786-0; MCF7; RPMI-8226; Malme-3M; SK-MEL-28; MDA-MB-231; ACHN; EKVX; OVCAR-5; OVCAR-8; SK-MEL-2; OVCAR-3; MOLT-4; HT-29; NCI-H23; HCT-15; SN12C; RXF 393; SR.
Holding throughout (test): DTP human tumour cell line panel, 48 h

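Five concentrations, 48 hours, 96-well plates. Here, GI50 denotes the concentration required for 50% inhibition of growth.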 The source made the active and inactive calls. No stated cut-off is given here; in the data, active = GI50 up to about 1.1 µM and inactive = higher.

In the case of `Fc1ccc(C(OCCN2CCC3CCC(C2)N3CCCc2ccccc2)c2ccc(F)cc2)cc1` (stereo not drawn), the GI50 with Hs-578T was 4.58 µM (inactive); in the experiment with 786-0, 2.41 µM (inactive); with MCF7 it was 3.74 µM (inactive); in the experiment with RPMI-8226 it was 2.48 µM (inactive); in the experiment with Malme-3M it was 2.29 µM (inactive); in the experiment with SK-MEL-28, 2.52 µM (inactive). The GI50 in the experiment with MDA-MB-231 is 3.87 µM (inactive); in the experiment on ACHN, 5.6 µM (inactive); in the experiment on EKVX, 3.82 µM (inactive); in the experiment with OVCAR-5, 6.71 µM (inactive); in the experiment with OVCAR-8, 2.24 µM (inactive); with SK-MEL-2 it was 3.48 µM (inactive). For the same compound, the GI50 in the experiment on OVCAR-3 was 3.55 µM (inactive); in the experiment on MOLT-4, 2.58 µM (inactive); in the experiment with HT-29 it was 3.3 µM (inactive); in the experiment with NCI-H23, 4.1 µM (inactive); in the experiment with HCT-15, 3.76 µM; in the experiment on SN12C, 3.57 µM (inactive).
With `COc1cc(OC)nc(Nc2c(C#N)c3nc4ccccc4n3c3ccccc23)n1`, the GI50 with Hs-578T is 47.6 µM (inactive); in the experiment with 786-0, 16.5 µM (inactive); with MCF7, 22.2 µM (inactive); in the experiment on RPMI-8226, > 100 µM (inactive); in the experiment with RXF 393 it was 39.8 µM (inactive); in the experiment with SK-MEL-28 it was > 100 µM (inactive). Besides, the GI50 with ACHN was 18.7 µM (inactive); in the experiment with EKVX it was 72.3 µM (inactive); with OVCAR-5, > 100 µM (inactive); in the experiment on OVCAR-8, 34.9 µM (inactive); in the experiment on SK-MEL-2, 25.8 µM (inactive); in the experiment on OVCAR-3, 31.3 µM (inactive). Besides, the GI50 is > 100 µM (inactive) in the experiment on MOLT-4, > 100 µM (inactive) in the experiment on HT-29, 32.1 µM (inactive) in the experiment on NCI-H23 and > 100 µM with HCT-15.
For `CC(C#N)NCc1ccc(C(C)NC(C)C#N)cc1` (stereo not drawn), the GI50 in the experiment with Hs-578T is > 100 µM (inactive); in the experiment with 786-0, > 100 µM (inactive); in the experiment on MCF7 it was > 100 µM (inactive); with RXF 393, > 100 µM (inactive); in the experiment with Malme-3M it was 96.6 µM (inactive); in the experiment on SK-MEL-28, > 100 µM (inactive). Further, the GI50 in the experiment on MDA-MB-231, with ACHN, in the experiment on EKVX, in the experiment with OVCAR-5, in the experiment with OVCAR-8 and with SK-MEL-2 was > 100 µM (inactive) in each case. Further, the GI50 was > 100 µM (inactive) with OVCAR-3; > 100 µM (inactive) with MOLT-4; > 100 µM (inactive) in the experiment with HT-29; > 100 µM (inactive) in the experiment on NCI-H23; > 100 µM in the experiment on HCT-15; > 100 µM (inactive) in the experiment with SN12C.
For the compound `CCN(CC)c1ccc2nc3ccc(/N=N/c4c(O)ccc5ccccc45)cc3[n+](-c3ccccc3)c2c1`, the GI50 is > 100 µM (inactive) in the experiment with Hs-578T; > 100 µM (inactive) with 786-0; 1.47 µM (inactive) in the experiment with SR; > 100 µM (inactive) in the experiment on RPMI-8226; > 100 µM (inactive) with RXF 393; > 100 µM (inactive) with Malme-3M. Also, the GI50 in the experiment with SK-MEL-28, with MDA-MB-231, in the experiment on ACHN, in the experiment on EKVX, in the experiment on OVCAR-5 and in the experiment with OVCAR-8 was > 100 µM (inactive) in each case. In addition, the GI50 in the experiment with SK-MEL-2 is > 100 µM (inactive); with OVCAR-3 it was > 100 µM (inactive); in the experiment with MOLT-4, > 100 µM (inactive); in the experiment on HT-29, > 100 µM (inactive); in the experiment with NCI-H23 it was > 100 µM (inactive); in the experiment with HCT-15 it was > 100 µM. Moreover, the GI50 in the experiment on SN12C is > 100 µM (inactive).
On to `COc1ccc(NC(=S)Nc2c(C)n(C)n(-c3ccccc3)c2=O)cc1`, for which the GI50 in the experiment with Hs-578T, in the experiment with 786-0, in the experiment with MCF7, in the experiment on RPMI-8226, in the experiment on RXF 393 and in the experiment with Malme-3M was > 100 µM (inactive) in each case. Besides, the GI50 with SK-MEL-28, in the experiment with MDA-MB-231, in the experiment with ACHN, with EKVX, in the experiment on OVCAR-5 and with OVCAR-8 was > 100 µM (inactive) in each case. The GI50 in the experiment with OVCAR-3 is > 100 µM (inactive); in the experiment on MOLT-4, > 100 µM (inactive); in the experiment on HT-29, > 100 µM (inactive); with NCI-H23, > 100 µM (inactive); with HCT-15, > 100 µM.
On to `C[C@@H](C1CC[C@H]2[C@@H]3[C@@H]4O[C@@H]4[C@@]4(O)CC=CC(=O)[C@]4(C)[C@H]3C[C@H](O)[C@]12C)[C@H]1C[C@]2(C)O[C@]2(C)C(=O)O1` (stereo partly drawn), for which the GI50 with Hs-578T, in the experiment with 786-0, with MCF7, in the experiment on RPMI-8226, in the experiment on Malme-3M and in the experiment with SK-MEL-28 was > 100 µM (inactive) throughout. Besides, the GI50 in the experiment with MDA-MB-231, in the experiment on ACHN, in the experiment on EKVX, in the experiment on OVCAR-5, in the experiment on OVCAR-8 and in the experiment with SK-MEL-2 was > 100 µM (inactive) throughout. In addition, the GI50 with OVCAR-3 is > 100 µM (inactive); in the experiment with MOLT-4 it was > 100 µM (inactive); with HT-29 it was > 100 µM (inactive); in the experiment on NCI-H23, > 100 µM (inactive); with HCT-15, > 100 µM; with SN12C, > 100 µM (inactive).
Turning to `C[n+]1ccccc1/C1=c2\cc/c([nH]2)=C(\c2cccc[n+]2C)C2=N/C(=C(/c3cccc[n+]3C)C3C=CC(N3)/C(c3cccc[n+]3C)=C3/C=CC1=N3)C=C2`, the GI50 is > 100 µM (inactive) with Hs-578T; > 100 µM (inactive) in the experiment on 786-0; 15.6 µM (inactive) with SR; > 100 µM (inactive) with MCF7; 56.1 µM (inactive) in the experiment on RPMI-8226; > 100 µM (inactive) in the experiment on RXF 393. The GI50 in the experiment with Malme-3M, in the experiment on SK-MEL-28, in the experiment with ACHN, with EKVX, in the experiment on OVCAR-5 and in the experiment on OVCAR-8 was > 100 µM (inactive) in each case. Moreover, the GI50 in the experiment on SK-MEL-2 was > 100 µM (inactive); in the experiment with OVCAR-3, 58.7 µM (inactive); in the experiment with MOLT-4 it was 58.1 µM (inactive); with HT-29, 39.3 µM (inactive); with NCI-H23, > 100 µM (inactive); in the experiment with HCT-15, > 100 µM. Also, the GI50 with SN12C was > 100 µM (inactive).
Consider `O=C1CC(c2cccc(Cl)c2)Oc2ccccc21` (stereo not drawn), for which the GI50 with Hs-578T was 23.6 µM (inactive); with 786-0 it was 16.7 µM (inactive); in the experiment with MCF7, 6.4 µM (inactive); in the experiment with RPMI-8226, 3.65 µM (inactive); in the experiment with SK-MEL-28, 18.6 µM (inactive); with MDA-MB-231 it was 34.5 µM (inactive). Also, the GI50 was 16.2 µM (inactive) in the experiment with ACHN; 14.8 µM (inactive) in the experiment with EKVX; 29.2 µM (inactive) in the experiment with OVCAR-8; 19.9 µM (inactive) in the experiment on SK-MEL-2; 17.5 µM (inactive) with HT-29; 10.2 µM (inactive) in the experiment on NCI-H23. In the experiment on HCT-15, the GI50 is 15.9 µM.
